According to ChEMBL document CHEMBL3885881, “DrugMatrix”:

Species on record: Rattus norvegicus
Assay: DrugMatrix - Regimen: Daily Repeat
Assay type: toxicity, organism-based, Sprague-Dawley
Set-up: regimen Daily Repeat, gender Male, age 6-8 weeks
Conditions: in vivo, po, route oral GAVAGE, […]; for ABSOLUTE BASOPHIL / ABSOLUTE EOSINOPHIL / ABSOLUTE LYMPHOCYTE / ABSOLUTE MONOCYTE / ABSOLUTE SEGMENTED NEUTROPHIL / BASOPHIL / EOSINOPHIL / ERYTHROCYTE COUNT / HEMATOCRIT / HEMOGLOBIN / LEUKOCYTE COUNT / LYMPHOCYTE / MEAN CORPUSCULAR HEMOGLOBIN / MEAN CORPUSCULAR HEMOGLOBIN CONCENTRATION / MEAN CORPUSCULAR VOLUME / MONOCYTE / NEUTROPHIL / NUCLEATED RED BLOOD CELLS / PLATELET COUNT: tissue Blood; for ALANINE AMINOTRANSFERASE / ALBUMIN / ALKALINE PHOSPHATASE / ASPARTATE AMINOTRANSFERASE / BLOOD UREA NITROGEN / CARBON DIOXIDE / CHLORIDE / CHOLESTEROL / CREATINE PHOSPHOKINASE / CREATININE / GLUCOSE / LACTATE DEHYDROGENASE / LIPASE / PHOSPHORUS / POTASSIUM / SODIUM / TOTAL BILIRUBIN / TOTAL PROTEIN / URIC ACID: tissue Plasma
[1] = 0 mg/kg, 72 h, dose level Control, time 3 day
[2] = 0 mg/kg, 120 h, dose level Control, time 5 day
[3] = 11 mg/kg, 72 h, dose level High, time 3 day

With `C[C@H]1O[C@@H](O[C@H]2[C@@H](O)C[C@H](O[C@H]3[C@@H](O)C[C@H](O[C@H]4CC[C@@]5(C)[C@H](CC[C@@H]6[C@@H]5C[C@@H](O)[C@]5(C)[C@@H](C7=CC(=O)OC7)CC[C@]65O)C4)O[C@@H]3C)O[C@@H]2C)C[C@H](O)[C@@H]1O` [DIGOXIN] the “ABSOLUTE BASOPHIL” value [1] was 0 CELLS/uL, the “ABSOLUTE EOSINOPHIL” value [1] was 0 CELLS/uL and the “ABSOLUTE LYMPHOCYTE” value [1] was 8493 CELLS/uL. The “ABSOLUTE MONOCYTE” value [1] was 127 CELLS/uL, the “ABSOLUTE SEGMENTED NEUTROPHIL” value [1] was 896.67 CELLS/uL and the BASOPHIL [1] was 0%. The EOSINOPHIL [1] was 0%, the “ERYTHROCYTE COUNT” value [1] was 5.53 x10E6/uL and the HEMATOCRIT [1] was 34.07%. The HEMOGLOBIN [1] was 13.28 G/DL, the “LEUKOCYTE COUNT” value [1] was 9.52 x10E3/uL and the LYMPHOCYTE [1] was 89.17%. The “MEAN CORPUSCULAR HEMOGLOBIN” value [1] was 24.07 pg, the “MEAN CORPUSCULAR HEMOGLOBIN CONCENTRATION” value [1] was 39.03 G/DL and the “MEAN CORPUSCULAR VOLUME” value [1] was 61.62 fL. The MONOCYTE [1] was 1.33%, the NEUTROPHIL [1] was 9.5% and the “NUCLEATED RED BLOOD CELLS” value [1] was 0.17 /100WBC. The “PLATELET COUNT” value [1] was 1054.17 x10E3/uL, the “ALANINE AMINOTRANSFERASE” value [1] was 77.67 u/L and the ALBUMIN [1] was 4.08 G/DL. The “ALKALINE PHOSPHATASE” value [1] was 404.5 u/L, the “ASPARTATE AMINOTRANSFERASE” value [1] was 83.17 u/L and the “BLOOD UREA NITROGEN” value [1] was 14.33 mg/dL. The “CARBON DIOXIDE” value [1] was 33.17 mmol/L, the CHLORIDE [1] was 101 MEQ/L and the CHOLESTEROL [1] was 76.33 mg/dL. The “CREATINE PHOSPHOKINASE” value [1] was 184.5 u/L, the CREATININE [1] was 0.13 mg/dL and the GLUCOSE [1] was 163.67 mg/dL. The “LACTATE DEHYDROGENASE” value [1] was 130.33 u/L, the LIPASE [1] was 11 u/L and the PHOSPHORUS [1] was 9.27 mg/dL. For the same molecule, the POTASSIUM [1] was 6.26 MEQ/L, the SODIUM [1] was 143.57 MEQ/L and the “TOTAL BILIRUBIN” value [1] was 0.18 mg/dL. For the same molecule, the “TOTAL PROTEIN” value [1] was 5.82 G/DL, the “URIC ACID” value [1] was 1.38 mg/dL and the “ABSOLUTE BASOPHIL” value [2] was 0 CELLS/uL. For the same molecule, the “ABSOLUTE EOSINOPHIL” value [2] was 0 CELLS/uL, the “ABSOLUTE LYMPHOCYTE” value [2] was 8546.17 CELLS/uL and the “ABSOLUTE MONOCYTE” value [2] was 49.5 CELLS/uL. For the same molecule, the “ABSOLUTE SEGMENTED NEUTROPHIL” value [2] was 554.33 CELLS/uL, the BASOPHIL [2] was 0% and the EOSINOPHIL [2] was 0%. The “ERYTHROCYTE COUNT” value [2] was 5.36 x10E6/uL, the HEMATOCRIT [2] was 33.38% and the HEMOGLOBIN [2] was 13.2 G/DL. The “LEUKOCYTE COUNT” value [2] was 9.15 x10E3/uL, the LYMPHOCYTE [2] was 93.17% and the “MEAN CORPUSCULAR HEMOGLOBIN” value [2] was 24.68 pg. The “MEAN CORPUSCULAR HEMOGLOBIN CONCENTRATION” value [2] was 39.58 G/DL, the “MEAN CORPUSCULAR VOLUME” value [2] was 62.38 fL and the MONOCYTE [2] was 0.5%. The NEUTROPHIL [2] was 6.33%, the “NUCLEATED RED BLOOD CELLS” value [2] was 0.17 /100WBC and the “PLATELET COUNT” value [2] was 1099.33 x10E3/uL. The “ALANINE AMINOTRANSFERASE” value [2] was 62.33 u/L, the ALBUMIN [2] was 4.1 G/DL and the “ALKALINE PHOSPHATASE” value [2] was 419 u/L. For the same molecule, the “ASPARTATE AMINOTRANSFERASE” value [2] was 83.17 u/L, the “BLOOD UREA NITROGEN” value [2] was 15.5 mg/dL and the “CARBON DIOXIDE” value [2] was 33.17 mmol/L. The CHLORIDE [2] was 98 MEQ/L, the CHOLESTEROL [2] was 58.33 mg/dL and the “CREATINE PHOSPHOKINASE” value [2] was 393.17 u/L. For the same molecule, the CREATININE [2] was 0.18 mg/dL, the GLUCOSE [2] was 163 mg/dL and the “LACTATE DEHYDROGENASE” value [2] was 111.5 u/L. It also gave an LIPASE [2] of 9.5 u/L, a PHOSPHORUS [2] of 10.02 mg/dL and a POTASSIUM [2] of 5.73 MEQ/L. For the same molecule, the SODIUM [2] was 143.65 MEQ/L, the “TOTAL BILIRUBIN” value [2] was 0.2 mg/dL and the “TOTAL PROTEIN” value [2] was 5.85 G/DL. The “URIC ACID” value [2] was 0.78 mg/dL, the “ABSOLUTE BASOPHIL” value [3] was 0 CELLS/uL and the “ABSOLUTE EOSINOPHIL” value [3] was 0 CELLS/uL. For the same molecule, the “ABSOLUTE LYMPHOCYTE” value [3] was 7683.67 CELLS/uL, the “ABSOLUTE MONOCYTE” value [3] was 95.67 CELLS/uL and the “ABSOLUTE SEGMENTED NEUTROPHIL” value [3] was 254 CELLS/uL. For the same molecule, the BASOPHIL [3] was 0%, the EOSINOPHIL [3] was 0% and the “ERYTHROCYTE COUNT” value [3] was 6.46 x10E6/uL. The HEMATOCRIT [3] was 39.07%, the HEMOGLOBIN [3] was 14.83 G/DL and the “LEUKOCYTE COUNT” value [3] was 8.03 x10E3/uL. For the same molecule, the LYMPHOCYTE [3] was 95.67%, the “MEAN CORPUSCULAR HEMOGLOBIN” value [3] was 22.9 pg and the “MEAN CORPUSCULAR HEMOGLOBIN CONCENTRATION” value [3] was 37.9 G/DL. The “MEAN CORPUSCULAR VOLUME” value [3] was 60.4 fL, the MONOCYTE [3] was 1% and the NEUTROPHIL [3] was 3.33%. For the same molecule, the “NUCLEATED RED BLOOD CELLS” value [3] was 0 /100WBC, the “PLATELET COUNT” value [3] was 1036 x10E3/uL and the “ALANINE AMINOTRANSFERASE” value [3] was 99.67 u/L. The ALBUMIN [3] was 4.37 G/DL, the “ALKALINE PHOSPHATASE” value [3] was 416 u/L and the “ASPARTATE AMINOTRANSFERASE” value [3] was 100.33 u/L. The “BLOOD UREA NITROGEN” value [3] was 11.67 mg/dL, the “CARBON DIOXIDE” value [3] was 33 mmol/L and the CHLORIDE [3] was 100 MEQ/L. For the same molecule, the CHOLESTEROL [3] was 90.67 mg/dL, the “CREATINE PHOSPHOKINASE” value [3] was 245.33 u/L and the CREATININE [3] was 0.1 mg/dL. The GLUCOSE [3] was 142.33 mg/dL, the “LACTATE DEHYDROGENASE” value [3] was 125.67 u/L and the LIPASE [3] was 10.33 u/L. The PHOSPHORUS [3] was 8.27 mg/dL, the POTASSIUM [3] was 6.27 MEQ/L and the SODIUM [3] was 143.3 MEQ/L. For the same molecule, the “TOTAL BILIRUBIN” value [3] was 0.2 mg/dL, the “TOTAL PROTEIN” value [3] was 6.3 G/DL and the “URIC ACID” value [3] was 1 mg/dL.
